Patent US10738028B2, “Spiro three-membered ring, spiro five-membered ring peptide deformylase inhibitor and use thereof in antibacteria and anti-tumor” (priority 2016, dated 2020)
Converted amounts (≈) assume the structure as drawn. Like-named read-outs stand apart in the source and are kept apart here.

How the values were obtained:
Type in all cases: cell-based
[1] = test system: HCT-116 colorectal cancer cell line; assay: CCK-8 proliferation inhibition; conditions: Homo sapiens, HCT-116, 72 h, concentration of 30 μM, 72 hours, CCK-8
Procedure, shortened: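 Growth inhibition is read by CCK-8 (1:10 dilution) after 72 h of compound exposure. HCT-116 cells grow in McCoy's 5A containing 10% newborn bovine serum at 2000 cells/well, with 1‰ DMSO as vehicle control.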

[2] = test system: methicillin-sensitive Staphylococcus aureus (MSSA); assay: MIC, two-fold agar dilution (CLSI), clinical isolates
Procedure, shortened: (§1)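 Susceptibility was tested using CLSI two-fold agar dilution against the strains examined.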

[3] = test system: methicillin-resistant Staphylococcus aureus (MRSA); assay: as above
Procedure, shortened: as §1

[4] = test system: Streptococcus pneoumoniae (SPN); assay: as above
Procedure, shortened: as §1

[5] = test system: Escherichia coli (including ESBLs, non-ESBLs); assay: as above
Procedure, shortened: as §1

[6] = test system: methicillin-resistant Staphylococcus epidermidis (MRSE); assay: as above
Procedure, shortened: as §1

[7] = test system: Enterococcus faecium (EFM); assay: as above
Procedure, shortened: as §1

[8] = test system: methicillin-sensitive Staphylococcus epidermidis (MSSE); assay: as above
Procedure, shortened: as §1

[9] = test system: Moraxella catarrhalis (BCA); assay: as above
Procedure, shortened: as §1

[10] = test system: Enterococcus faecalis (EFA); assay: as above
Procedure, shortened: as §1

[11] = test system: BEL-7402 liver cancer cell line; assay: CCK-8 proliferation inhibition; conditions: Homo sapiens, Bel-7402, 72 h, concentration of 30 μM
From the text: (§2) 2. The present invention adopts the CCK-8 method to determine the proliferation inhibition effect of the spiro three-membered ring, spiro five-membered ring peptide deformylase inhibitor as described in Examples 1-80 against colorectal cancer cells, lung cancer cells, gastric cancer cells, liver cancer cells, and the like. […] The compound having the best activity synthesized in Example 64 was further tested for its inhibitory activity against other tumor cells including T cell leukemia, acute myeloid leukemia, cervical cancer, breast cancer, prostate cancer and osteosarcoma, and the like (see Table 7).
(§3) (1) HCT-116 colorectal cancer cell line, A549 lung cancer cell line, MGC-803 gastric cancer cell line, BEL-7402 liver cancer cell line, Jurkat T cell leukemia cell line, HL60 acute myeloid leukemia cell line, Hela cervical cancer cell line, MCF-7 breast cancer cell line, PC3 prostate cancer cell line and SAOS-2 osteosarcoma cell line were made into single cell suspension, 180 μL of which was inoculated into 96-well culture plate, which was cultured overnight in CO2 incubator (37° C., 5% CO2, 95% air).
(§4) (2) Each of the spiro three-membered ring, spiro five membered ring peptide deformylase inhibitors was dissolved in DMSO, and was further formulated into drug solution with required different final concentration using corresponding cell culture medium. The drug solutions were added to the above cells respectively (20 μL/well), with the control group added with 1‰ DMSO, and cultured in a CO2 incubator for 72 hours.
(§5) (3) After incubation for 72 hours, the culture solution was decanted, and 100 μL of 1:10 diluted CCK-8 solution was added.
(§6) Wherein, in step (1), the concentration of the single cell suspension was 2000 cells/well.
(§7) Wherein, in step (2), HCT-116 cells were cultured in McCoy's 5A medium (containing 10% newborn bovine serum, 1% double antibody); A549 and PC3 cells were cultured in F12 medium (containing 10% newborn bovine serum, 1% double antibody); MGC-803, BEL-7402, SAOS-2, Jurkat and HL60 cells were cultured in 1640 medium (containing 10% newborn bovine serum, 1% double antibody); and MCF-7 and Hela cells were cultured in DMEM high glucose medium (containing 10% newborn bovine serum, 1% double antibody).

[12] = test system: A549 lung cancer cell line; assay: CCK-8 proliferation inhibition; conditions: Homo sapiens, A549, 72 h, concentration of 30 μM
From the text: as §2, §3, §4, §5, §6, §7

[13] = test system: MGC-803 gastric cancer cell line; assay: CCK-8 proliferation inhibition; conditions: Homo sapiens, MGC-803, 72 h, concentration of 30 μM
From the text: as §2, §3, §4, §5, §6, §7

For `O=CN(O)C[C@@H](CC1CCCC1)C(=O)N1CC2(CC2)C[C@H]1C(=O)NC1CC1` [Example 32, (S)-5-((R)-3-cyclopentyl-2-((N-hydroxyformamido)methyl)propionyl)-N-cyclopropyl-5-azaspiro[2.4]heptane-6-carboxamide], the inhibition at 30 µM ([1]; Table 5, read-out: Inhibition of proliferation, Colorectal cancer HCT116) was no less than 30%, the inhibition at 30 µM ([1]; read-out: HCT116 inhibition rate/%) was 30% and the MIC (anti-bacterial activity) ([2]; strain MSSA 15-3) was 2 µg/mL (≈ 5.3 µM). For the same molecule, the MIC (anti-bacterial activity) ([2]; strain MSSA 15-4) was 1 µg/mL (≈ 2.65 µM), the MIC (anti-bacterial activity) ([2]; strain MSSA 15-5) was 1 µg/mL (≈ 2.65 µM) and the MIC (anti-bacterial activity) ([2]; strain MSSA 15-6) was 2 µg/mL (≈ 5.3 µM). It also gave an MIC (anti-bacterial activity) ([3]; strain MRSA 15-1) of 1 µg/mL (≈ 2.65 µM), an MIC (anti-bacterial activity) ([3]; strain MRSA 15-2) of 1 µg/mL (≈ 2.65 µM) and an MIC (anti-bacterial activity) ([3]; strain MRSA 15-3) of 1 µg/mL (≈ 2.65 µM). It also gave an MIC (anti-bacterial activity) ([3]; strain MRSA 15-4) of 1 µg/mL (≈ 2.65 µM), an MIC (anti-bacterial activity) ([4]; strain SPN 16-2) of 1 µg/mL (≈ 2.65 µM) and an MIC (anti-bacterial activity) ([4]; strain SPN 16-4) of 8 µg/mL (≈ 21.2 µM). For the same molecule, the MIC (anti-bacterial activity) ([5]; strain ECO+ 15-1) was 32 µg/mL (≈ 84.8 µM), the MIC (anti-bacterial activity) ([5]; strain ECO+ 15-2) was greater than 32 µg/mL and the MIC (anti-bacterial activity) ([5]; strain ECO+ 15-3) was greater than 32 µg/mL. The MIC (anti-bacterial activity) ([5]; strain ECO+ 15-4) was 32 µg/mL (≈ 84.8 µM), the MIC (anti-bacterial activity) ([5]; strain ECO− 15-1) was 32 µg/mL (≈ 84.8 µM) and the MIC (anti-bacterial activity) ([5]; strain ECO− 15-2) was greater than 32 µg/mL. The MIC (anti-bacterial activity) ([5]; strain ECO− 15-3) was greater than 32 µg/mL, the MIC (anti-bacterial activity) ([5]; strain ECO− 15-4) was greater than 32 µg/mL and the MIC (anti-bacterial activity) ([6]; strain MRSE 15-1) was 1 µg/mL (≈ 2.65 µM). It also gave an MIC (anti-bacterial activity) ([6]; strain MRSE 15-2) of 2 µg/mL (≈ 5.3 µM), an MIC (anti-bacterial activity) ([6]; strain MRSE 15-3) of 8 µg/mL (≈ 21.2 µM) and an MIC (anti-bacterial activity) ([6]; strain MRSE 15-7) of 8 µg/mL (≈ 21.2 µM). For the same molecule, the MIC (anti-bacterial activity) ([7]; strain EFM 15-1) was 4 µg/mL (≈ 10.6 µM), the MIC (anti-bacterial activity) ([7]; strain EFM 15-2) was 4 µg/mL (≈ 10.6 µM) and the MIC (anti-bacterial activity) ([7]; strain EFM 15-3) was 1 µg/mL (≈ 2.65 µM). It also gave an MIC (anti-bacterial activity) ([7]; strain EFM 15-4) of 4 µg/mL (≈ 10.6 µM), an MIC (anti-bacterial activity) ([7]; strain EFM 15-5) of 4 µg/mL (≈ 10.6 µM) and an MIC (anti-bacterial activity) ([7]; strain EFM 15-6) of 4 µg/mL (≈ 10.6 µM). For the same molecule, the MIC (anti-bacterial activity) ([8]; strain MSSE 15-3) was 2 µg/mL (≈ 5.3 µM), the MIC (anti-bacterial activity) ([8]; strain MSSE 15-4) was 2 µg/mL (≈ 5.3 µM) and the MIC (anti-bacterial activity) ([8]; strain MSSE 15-5) was 2 µg/mL (≈ 5.3 µM). It also gave an MIC (anti-bacterial activity) ([8]; strain MSSE 15-6) of 2 µg/mL (≈ 5.3 µM), an Anti-bacterial activity (MIC), strain BCA 14-10 ([9]; clinical isolate BCA 14-10) of 1 µg/mL and an MIC (anti-bacterial activity) ([9]; strain BCA 14-1) of 4 µg/mL (≈ 10.6 µM). For the same molecule, the MIC (anti-bacterial activity) ([9]; strain BCA 14-4) was 4 µg/mL (≈ 10.6 µM), the MIC (anti-bacterial activity) ([9]; strain BCA 14-5) was 2 µg/mL (≈ 5.3 µM) and the MIC (anti-bacterial activity) ([9]; strain BCA 14-6) was 8 µg/mL (≈ 21.2 µM). For the same molecule, the MIC (anti-bacterial activity) ([9]; strain BCA 14-7) was 1 µg/mL (≈ 2.65 µM), the MIC (anti-bacterial activity) ([9]; strain BCA 14-8) was 8 µg/mL (≈ 21.2 µM) and the MIC (anti-bacterial activity) ([10]; strain EFA 15-1) was 8 µg/mL (≈ 21.2 µM). For the same molecule, the MIC (anti-bacterial activity) ([10]; strain EFA 15-2) was 8 µg/mL (≈ 21.2 µM), the MIC (anti-bacterial activity) ([10]; strain EFA 15-3) was 8 µg/mL (≈ 21.2 µM) and the MIC (anti-bacterial activity) ([10]; strain EFA 15-4) was 8 µg/mL (≈ 21.2 µM). It also gave an MIC (anti-bacterial activity) ([10]; strain EFA 15-5) of 8 µg/mL (≈ 21.2 µM), an MIC (anti-bacterial activity) ([10]; strain EFA 15-6) of 8 µg/mL (≈ 21.2 µM) and an MIC (anti-bacterial activity) ([10]; strain EFA 15-9) of 8 µg/mL (≈ 21.2 µM). For the same molecule, the inhibition at 30 µM [11] was 46%, the inhibition at 30 µM [12] was 14% and the inhibition at 30 µM [13] was 14%.
